The results in this text go back to paper PMC5218480 (PLoS ONE, 2017).

In the assay the test system is MV-4-11 cells. Put plainly: Gene expression microarray analysis (Affymetrix PrimeView) and GSEA. The assay is classed as cell-based, human. Set-up: RFU PODN (11730768_x_at) / Fold change /veh PODN (11730768_x_at) / RFU LINC00158 (11744669_a_at) / Fold change /veh LINC00158 (11744669_a_at) / RFU DUSP10 (11751237_a_at) / Fold change /veh DUSP10 (11751237_a_at) / RFU ID3 (11757404_x_at) / Fold change /veh ID3 (11757404_x_at) / RFU PLEKHG5 (11737974_s_at) / Fold change /veh PLEKHG5 (11737974_s_at) / RFU LRRC4B (11730491_at) / Fold change /veh LRRC4B (11730491_at) / RFU GIMAP4 (11747438_a_at) / Fold change /veh GIMAP4 (11747438_a_at) / RFU KRT8 (11758183_x_at) / Fold change /veh KRT8 (11758183_x_at) / RFU CNN1 (11734310_a_at) / Fold change /veh CNN1 (11734310_a_at) / RFU VPS37D (11726825_at) / Fold change /veh VPS37D (11726825_at) / RFU C10orf10 (11716522_x_at) / Fold change /veh C10orf10 (11716522_x_at) / RFU KIR2DL2 /// KIR2DL4 /// KIR2DL5A /// KIR2DL5B /// KIR2DS1 /// KIR2DS2 /// KIR2DS3 /// KIR2DS4 /// KIR3DL3 /// KIR3DL3 /// KIR3DS1 (11738374_at) / Fold change /veh KIR2DL2 /// KIR2DL4 /// KIR2DL5A /// KIR2DL5B /// KIR2DS1 /// KIR2DS2 /// KIR2DS3 /// KIR2DS4 /// KIR3DL3 /// KIR3DL3 /// KIR3DS1 (11738374_at) / RFU C1QL1 (11718748_at) / Fold change /veh C1QL1 (11718748_at) / RFU TMPRSS4 (11747572_a_at) / Fold change /veh TMPRSS4 (11747572_a_at) / RFU HAMP (11756126_x_at) / Fold change /veh HAMP (11756126_x_at) / RFU RNFT2 (11725882_a_at) / Fold change /veh RNFT2 (11725882_a_at) / RFU NR4A2 (11747474_a_at) / Fold change /veh NR4A2 (11747474_a_at) / RFU ABCC12 (11746883_a_at) / Fold change /veh ABCC12 (11746883_a_at) / RFU TMEM136 (11760407_x_at) / Fold change /veh TMEM136 (11760407_x_at) / RFU CLDN22 /// WWC2 (11732394_at) / Fold change /veh CLDN22 /// WWC2 (11732394_at) / RFU HLA-DPB1 (11760878_x_at) / Fold change /veh HLA-DPB1 (11760878_x_at) / RFU SPINT1 (11716480_a_at) / Fold change /veh SPINT1 (11716480_a_at) / RFU GAP43 (11754022_s_at) / Fold change /veh GAP43 (11754022_s_at) / RFU A4GNT (11735810_at) / Fold change /veh A4GNT (11735810_at) / RFU PRB3 (11715151_x_at) / Fold change /veh PRB3 (11715151_x_at) / RFU TUBB4B (11761932_at) / Fold change /veh TUBB4B (11761932_at) / RFU CAPN14 (11732068_a_at) / Fold change /veh CAPN14 (11732068_a_at) / RFU TMCC2 (11721928_a_at) / Fold change /veh TMCC2 (11721928_a_at) / RFU IRGQ (11745062_a_at) / Fold change /veh IRGQ (11745062_a_at) / RFU FAM174B (11720279_a_at) / Fold change /veh FAM174B (11720279_a_at) / RFU TMPRSS4 (11748680_a_at) / Fold change /veh TMPRSS4 (11748680_a_at) / RFU FAM212B (11763350_a_at) / Fold change /veh FAM212B (11763350_a_at) / RFU PLEKHG5 (11743358_a_at) / Fold change /veh PLEKHG5 (11743358_a_at) / RFU ZSCAN30 (11745921_a_at) / Fold change /veh ZSCAN30 (11745921_a_at) / RFU CMKLR1 (11741424_a_at) / Fold change /veh CMKLR1 (11741424_a_at) / RFU LOC101060620 /// MAPK8IP1 (11723275_at) / Fold change /veh LOC101060620 /// MAPK8IP1 (11723275_at) / RFU SPTSSB (11747773_x_at) / Fold change /veh SPTSSB (11747773_x_at) / RFU PRSS12 (11739890_at) / Fold change /veh PRSS12 (11739890_at) / RFU BIN1 (11741810_x_at) / Fold change /veh BIN1 (11741810_x_at) / RFU WNT11 (11732464_a_at) / Fold change /veh WNT11 (11732464_a_at) / RFU C10orf10 (11716521_a_at) / Fold change /veh C10orf10 (11716521_a_at) / RFU C5orf56 (11738089_at) / Fold change /veh C5orf56 (11738089_at) / RFU CYB561 (11721691_x_at) / Fold change /veh CYB561 (11721691_x_at) / RFU ANKRD19P (11752326_a_at) / Fold change /veh ANKRD19P (11752326_a_at) / RFU OR2T12 /// OR2T33 /// OR2T8 (11738714_s_at) / Fold change /veh OR2T12 /// OR2T33 /// OR2T8 (11738714_s_at) / RFU VCAN (11748164_a_at) / Fold change /veh VCAN (11748164_a_at) / RFU JSRP1 (11732532_at) / Fold change /veh JSRP1 (11732532_at) / RFU KRTAP10-11 (11738290_x_at) / Fold change /veh KRTAP10-11 (11738290_x_at) / RFU MYO3A (11730013_a_at) / Fold change /veh MYO3A (11730013_a_at) / RFU EBF3 (11725865_a_at) / Fold change /veh EBF3 (11725865_a_at) / RFU CAMK2N1 (11719241_x_at) / Fold change /veh CAMK2N1 (11719241_x_at) / RFU C5orf56 (11738088_a_at) / Fold change /veh C5orf56 (11738088_a_at) / RFU OLFML3 (11715873_a_at) / Fold change /veh OLFML3 (11715873_a_at) / RFU LOC100653217 /// NTM (11731650_a_at) / Fold change /veh LOC100653217 /// NTM (11731650_a_at) / RFU MAPK11 (11762145_a_at) / Fold change /veh MAPK11 (11762145_a_at) / RFU FIZ1 (11724087_x_at) / Fold change /veh FIZ1 (11724087_x_at) / RFU OASL (11726364_x_at) / Fold change /veh OASL (11726364_x_at) / RFU SOX15 (11748057_x_at) / Fold change /veh SOX15 (11748057_x_at) / RFU CD79A (11719716_a_at) / Fold change /veh CD79A (11719716_a_at) / RFU HIST1H1D (11736915_at) / Fold change /veh HIST1H1D (11736915_at) / RFU CASKIN2 (11723855_a_at) / Fold change /veh CASKIN2 (11723855_a_at) / RFU LOC730098 (11760151_x_at) / Fold change /veh LOC730098 (11760151_x_at) / RFU OR4N2 (11742367_at) / Fold change /veh OR4N2 (11742367_at) / RFU PRRT2 (11749266_a_at) / Fold change /veh PRRT2 (11749266_a_at) / RFU SNX32 (11753110_a_at) / Fold change /veh SNX32 (11753110_a_at) / RFU CDHR5 (11726645_a_at) / Fold change /veh CDHR5 (11726645_a_at) / RFU RCAN1 (11760418_a_at) / Fold change /veh RCAN1 (11760418_a_at) / RFU FAM167A (11723789_a_at) / Fold change /veh FAM167A (11723789_a_at) / RFU FAM26E (11764081_at) / Fold change /veh FAM26E (11764081_at) / RFU ISYNA1 (11749810_s_at) / Fold change /veh ISYNA1 (11749810_s_at) / RFU ACY1 (11761880_at) / Fold change /veh ACY1 (11761880_at) / RFU 11764098_at / Fold change /veh 11764098_at / RFU SAMD14 (11745864_x_at) / Fold change /veh SAMD14 (11745864_x_at) / RFU NPB (11741838_a_at) / Fold change /veh NPB (11741838_a_at) / RFU TMPRSS6 (11731388_a_at) / Fold change /veh TMPRSS6 (11731388_a_at) / RFU KRTAP10-2 (11738614_at) / Fold change /veh KRTAP10-2 (11738614_at) / RFU ARHGAP8 /// PRR5-ARHGAP8 (11727945_x_at) / Fold change /veh ARHGAP8 /// PRR5-ARHGAP8 (11727945_x_at) / RFU KRTAP5-7 /// NADSYN1 (11734609_at) / Fold change /veh KRTAP5-7 /// NADSYN1 (11734609_at) / RFU RASL12 (11751679_a_at) / Fold change /veh RASL12 (11751679_a_at) / RFU CDKN2B (11736163_a_at) / Fold change /veh CDKN2B (11736163_a_at) / RFU PRF1 (11729649_at) / Fold change /veh PRF1 (11729649_at) / RFU, ZNF638 /// ZNF638-IT1 / Fold change vs veh, ZNF638 /// ZNF638-IT1 / RFU, PANK3 / Fold change vs veh, PANK3 / RFU, SH3YL1 / Fold change vs veh, SH3YL1 / RFU, ZEB2 / Fold change vs veh, ZEB2 / RFU, NRIP1 / Fold change vs veh, NRIP1 / RFU, PTTG1IP / Fold change vs veh, PTTG1IP / RFU, CAPN2 / Fold change vs veh, CAPN2 / RFU, MED14 / Fold change vs veh, MED14 / RFU, SNORA58 / Fold change vs veh, SNORA58 / RFU, C1orf63 / Fold change vs veh, C1orf63 / RFU, LRRFIP1 / Fold change vs veh, LRRFIP1 / RFU, NDUFAF7 / Fold change vs veh, NDUFAF7 / RFU, SLC12A2 / Fold change vs veh, SLC12A2 / RFU, IBTK / Fold change vs veh, IBTK / RFU, ESF1 / Fold change vs veh, ESF1 / Fold change vs veh, TMEM50B / RFU, TAOK1 / Fold change vs veh, TAOK1 / RFU, ACBD3 / Fold change vs veh, ACBD3 / RFU, TMA16 / Fold change vs veh, TMA16 / RFU, RWDD3 / Fold change vs veh, RWDD3 / RFU, BCAT1 / Fold change vs veh, BCAT1 / RFU, EDEM3 / Fold change vs veh, EDEM3 / RFU, TMEM33 / Fold change vs veh, TMEM33 / RFU, WDR75 / Fold change vs veh, WDR75 / RFU, AHCTF1 / Fold change vs veh, AHCTF1 / RFU, TFRC / Fold change vs veh, TFRC / RFU, ZDHHC17 / Fold change vs veh, ZDHHC17 / RFU, NOM1 / Fold change vs veh, NOM1 / RFU, ARL8B / Fold change vs veh, ARL8B / RFU, ZBTB11 / Fold change vs veh, ZBTB11 / RFU, TAMM41 / Fold change vs veh, TAMM41 / RFU, KIAA1704 /// LOC100996395 / Fold change vs veh, KIAA1704 /// LOC100996395 / RFU, ING1 / Fold change vs veh, ING1 / RFU, TRMT61B / Fold change vs veh, TRMT61B / RFU, FUBP3 / Fold change vs veh, FUBP3 / RFU, TP53 / Fold change vs veh, TP53 / RFU, TNKS2 / Fold change vs veh, TNKS2 / RFU, ZFP14 / Fold change vs veh, ZFP14 / RFU, ACTR2 / Fold change vs veh, ACTR2 / RFU, PPP3R1 / Fold change vs veh, PPP3R1 / RFU, PIK3R1 / Fold change vs veh, PIK3R1 / RFU, HNRNPA1 / Fold change vs veh, HNRNPA1 / RFU, RNF170 / Fold change vs veh, RNF170 / RFU, ZNF28 / Fold change vs veh, ZNF28 / RFU, RNGTT / Fold change vs veh, RNGTT / RFU, OGT / Fold change vs veh, OGT / RFU, BRD1 / Fold change vs veh, BRD1 / RFU, MARS / Fold change vs veh, MARS / RFU, ZNF655 / Fold change vs veh, ZNF655 / RFU, FAHD1 / Fold change vs veh, FAHD1 / RFU, BDP1 / Fold change vs veh, BDP1 / RFU, LRRCC1 / Fold change vs veh, LRRCC1 / RFU, ARID1A / Fold change vs veh, ARID1A / RFU, ZNF146 / Fold change vs veh, ZNF146 / RFU, ZNF330 / Fold change vs veh, ZNF330 / RFU, GPN3 / Fold change vs veh, GPN3 / RFU, C9orf123 / Fold change vs veh, C9orf123 / RFU, N4BP2L2 / Fold change vs veh, N4BP2L2 / RFU, ARFIP1 / Fold change vs veh, ARFIP1 / RFU, FAM179B / Fold change vs veh, FAM179B / RFU, BCL10 / Fold change vs veh, BCL10 / RFU, UHRF1BP1L / Fold change vs veh, UHRF1BP1L / RFU, BET1 / Fold change vs veh, BET1 / RFU, CNOT2 / Fold change vs veh, CNOT2 / RFU, ZNF268 / Fold change vs veh, ZNF268 / Fold change vs veh, ZNF507 / RFU, DGCR2 / Fold change vs veh, DGCR2 / RFU, WDSUB1 / Fold change vs veh, WDSUB1 / Fold change vs veh, HSP90B1 /// MIR3652 / RFU, ADSS / Fold change vs veh, ADSS / RFU, GK / Fold change vs veh, GK / RFU, ZNF148 / Fold change vs veh, ZNF148 / RFU, TAF9 / Fold change vs veh, TAF9 / RFU, SLC1A5 / Fold change vs veh, SLC1A5 / RFU, SLMO2 / Fold change vs veh, SLMO2 / RFU, ABCC4 / Fold change vs veh, ABCC4 / RFU, LOC101060439 /// RAP1B / Fold change vs veh, LOC101060439 /// RAP1B / RFU, RFX7 / Fold change vs veh, RFX7 / RFU, GTPBP10 / Fold change vs veh, GTPBP10 / RFU, CNEP1R1 / Fold change vs veh, CNEP1R1 / RFU, BIVM-ERCC5 /// ERCC5 / Fold change vs veh, BIVM-ERCC5 /// ERCC5 / RFU, ILF3 / Fold change vs veh, ILF3 / RFU 11762660_at / Fold change /veh 11762660_at / RFU VCAN (11757783_s_at) / Fold change /veh VCAN (11757783_s_at) / RFU DDX43 (11728927_at) / Fold change /veh DDX43 (11728927_at) / RFU KRT8 (11758188_x_at) / Fold change /veh KRT8 (11758188_x_at) / RFU NKD1 (11759106_at) / Fold change /veh NKD1 (11759106_at) / RFU SRD5A1 (11742802_a_at) / Fold change /veh SRD5A1 (11742802_a_at) / RFU TPSAB1 /// TPSB2 (11721975_s_at) / Fold change /veh TPSAB1 /// TPSB2 (11721975_s_at) / RFU GSTM3 (11746129_a_at) / Fold change /veh GSTM3 (11746129_a_at) / RFU IL23R (11737362_x_at) / Fold change /veh IL23R (11737362_x_at) / RFU TMEM51 (11727254_a_at) / Fold change /veh TMEM51 (11727254_a_at) / RFU PIWIL2 (11732686_x_at) / Fold change /veh PIWIL2 (11732686_x_at) / RFU ORM1 (11744905_x_at) / Fold change /veh ORM1 (11744905_x_at) / RFU CCDC152 (11743942_at) / Fold change /veh CCDC152 (11743942_at) / RFU ECM1 (11717891_a_at) / Fold change /veh ECM1 (11717891_a_at) / RFU IL23R (11748794_a_at) / Fold change /veh IL23R (11748794_a_at) / RFU TNFAIP8L3 (11732012_x_at) / Fold change /veh TNFAIP8L3 (11732012_x_at) / RFU MBOAT4 (11741988_at) / Fold change /veh MBOAT4 (11741988_at) / RFU 11764193_at / Fold change /veh 11764193_at / RFU TMEM53 (11763286_at) / Fold change /veh TMEM53 (11763286_at) / RFU MAGEB2 (11727129_at) / Fold change /veh MAGEB2 (11727129_at) / RFU TMEM200A (11744735_a_at) / Fold change /veh TMEM200A (11744735_a_at) / RFU CCDC152 (11751479_a_at) / Fold change /veh CCDC152 (11751479_a_at) / RFU FAM211A (11726209_a_at) / Fold change /veh FAM211A (11726209_a_at) / RFU RGS16 (11746705_a_at) / Fold change /veh RGS16 (11746705_a_at) / RFU VCAN (11755009_s_at) / Fold change /veh VCAN (11755009_s_at) / RFU RHOB (11743442_s_at) / Fold change /veh RHOB (11743442_s_at) / RFU RGS16 (11720943_a_at) / Fold change /veh RGS16 (11720943_a_at) / RFU RGS16 (11720944_at) / Fold change /veh RGS16 (11720944_at) / RFU, VPS4B / Fold change vs veh, VPS4B / RFU, CREB1 / Fold change vs veh, CREB1 / RFU, DNAJC13 / Fold change vs veh, DNAJC13 / RFU, GNAQ / Fold change vs veh, GNAQ / RFU, CDK5R1 / Fold change vs veh, CDK5R1 / RFU, ZRANB3 / Fold change vs veh, ZRANB3 / RFU, CUL4A / Fold change vs veh, CUL4A / RFU, CCNY / Fold change vs veh, CCNY / RFU, UFL1 / Fold change vs veh, UFL1 / RFU, COG3 / Fold change vs veh, COG3 / RFU, DIAPH2 / Fold change vs veh, DIAPH2 / RFU, SKA2 / Fold change vs veh, SKA2 / RFU, AFF3 / Fold change vs veh, AFF3 / RFU, LMF1 / Fold change vs veh, LMF1 / RFU, IPO11 / Fold change vs veh, IPO11 / RFU, DFFB / Fold change vs veh, DFFB / RFU, FOXP1 / Fold change vs veh, FOXP1 / RFU, CARD8 / Fold change vs veh, CARD8 / RFU, STRN3 / Fold change vs veh, STRN3 / RFU, ADK / Fold change vs veh, ADK / RFU, RASSF2 / Fold change vs veh, RASSF2 / RFU, WIPF1 / Fold change vs veh, WIPF1 / RFU, LARP1B / Fold change vs veh, LARP1B / RFU, RASA1 / Fold change vs veh, RASA1 / RFU, RB1 / Fold change vs veh, RB1 / RFU, PPFIA1 / Fold change vs veh, PPFIA1 / RFU, MAT2A / Fold change vs veh, MAT2A / RFU, CCT5 / Fold change vs veh, CCT5 / RFU, WDR92 / Fold change vs veh, WDR92 / RFU, CUX1 / Fold change vs veh, CUX1 / RFU, TTC7A / Fold change vs veh, TTC7A / RFU, TMEM135 / Fold change vs veh, TMEM135 / RFU, DEPTOR / Fold change vs veh, DEPTOR / RFU, CPM / Fold change vs veh, CPM / RFU, DNAJB6 / Fold change vs veh, DNAJB6 / RFU, CACNA2D3 / Fold change vs veh, CACNA2D3 / RFU, DTX4 / Fold change vs veh, DTX4 / RFU, TFCP2 / Fold change vs veh, TFCP2 / RFU, GMCL1 /// GMCL1P1 / Fold change vs veh, GMCL1 /// GMCL1P1 / RFU, AEBP2 / Fold change vs veh, AEBP2 / RFU, SNHG1 /// SNORD22 /// SNORD25 /// SNORD26 /// SNORD27 /// SNORD28 /// SNORD29 /// SNORD31 / Fold change vs veh, SNHG1 /// SNORD22 /// SNORD25 /// SNORD26 /// SNORD27 /// SNORD28 /// SNORD29 /// SNORD31 / Fold change (Aza/veh), C12orf56 (ProbeSet 11735607_a_at) / Fold change (ACY-1035/veh), C12orf56 (ProbeSet 11735607_a_at) / Fold change (Aza/veh), FGFR1OP (ProbeSet 11751329_s_at) / Fold change (ACY-1035/veh), FGFR1OP (ProbeSet 11751329_s_at) / Fold change (Aza/veh), VPS36 (ProbeSet 11739960_a_at) / Fold change (ACY-1035/veh), VPS36 (ProbeSet 11739960_a_at) / RFU SYPL1 (11715823_x_at) / Fold change /veh SYPL1 (11715823_x_at) / RFU IGFBP7 (11715501_s_at) / Fold change /veh IGFBP7 (11715501_s_at) / RFU REEP3 (11722064_at) / Fold change /veh REEP3 (11722064_at) / RFU IGLL1 (11728026_x_at) / Fold change /veh IGLL1 (11728026_x_at): dose or concentration left out as unconfirmed. The following applies: ProbeSet 11723944_a_at; LIST B.

The structures appear in SMILES notation.

Take `Nc1ccc(-c2cccs2)cc1NC(=O)c1ccc2c(c1)cc(C1CC1)n2CCN1CCOCC1` [ACY-1035]: the “RFU, PTTG1IP” value was determined as 718.82 RFU.
